What was measured:
HBV core protein = HBV core protein (UniProt P03146); type: biochemical; conditions: read-out: Assembly Activity (IC50); BODIPY-FL labelled core protein, assembly started with NaCl, read after 6 min
In short: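 Compounds tested at 8 concentrations in 0.5-log steps from 100, 31.6 or 10 μM against 1.0–2.0 μM BODIPY-FL-labelled Cys150 core dimers (residues 1–149), 50 mM HEPES pH 7.5. NaCl ([…] final) triggered assembly; quenching read at 6 min, 477/525 nm, with 2.5 M and 0 M NaCl as controls; EC50 by nonlinear fit.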

HBV = experiment: Determination of HBV DNA from the supernatants of HepAD38 cells (anti-HBV activity); type: cell-based, hepatitis B virus; conditions: Hepatitis B virus, 144 h; HBV DNA in HepAD38 supernatant at day 6; read-out: Cell Activity (EC50)
In short: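 EC50 values were obtained by non-linear regression of HBV DNA copy numbers measured by qPCR against pCH-9/3091 plasmid standards. The DNA came from filtered supernatants collected on day 6. Before that, tetracycline-withdrawn HepAD38 cells had been exposed to serial half-log compound dilutions, with tetracycline-treated cells as the non-producing control.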

Sequence of HBV core protein (P03146 whole entry, looked up, the tested form may be a part): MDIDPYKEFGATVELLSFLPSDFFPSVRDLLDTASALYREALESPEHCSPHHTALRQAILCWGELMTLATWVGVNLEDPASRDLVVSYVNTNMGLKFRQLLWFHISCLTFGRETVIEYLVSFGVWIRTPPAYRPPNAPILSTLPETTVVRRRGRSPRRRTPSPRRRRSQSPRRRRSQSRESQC

Row | Structure (SMILES) | IC50 (HBV core protein) [µM] | EC50 (HBV) [µM]
1 | O=C(c1cc2c(Cl)cc(F)cc2[nH]1)N1CCc2nc(NCC3(CO)CC3)sc2C1 [Example 60, [1-({[5-(4-chloro-6-fluoro-1H-indole-2-carbonyl)-4H,5H,6H,7H-[1,3]thiazolo[5,4-c]pyridin-2-yl]amino}methyl)cyclopropyl]methanol] | < 5 | < 1
2 | CN(C)c1nc2c(s1)CN(C(=O)c1cc3c(F)ccc(F)c3[nH]1)CC2 [Example 133, 5-(4,7-difluoro-1H-indole-2-carbonyl)-N,N-dimethyl-4H,5H,6H,7H-[1,3]thiazolo[5,4-c]pyridin-2-amine] | < 100 | 1 to 10
3 | O=C(Nc1nc2c(s1)CN(C(=O)c1cc3c(C(F)F)cc(F)cc3[nH]1)CC2)C1CCOCC1 [Example 402, N-{5-[4-(difluoromethyl)-6-fluoro-1H-indole-2-carbonyl]-4H,5H,6H,7H-[1,3]thiazolo[5,4-c]pyridin-2-yl}oxane-4-carboxamide] | < 5 | < 1
4 | O=C(Nc1nc2c(s1)CN(C(=O)c1cc3ccccc3[nH]1)CC2)C1CCOCC1 [Example 2, N-[5-(1H-indole-2-carbonyl)-4H,5H,6H,7H-[1,3]thiazolo[5,4-c]pyridin-2-yl]oxane-4-carboxamide] | < 5 | < 1
5 | CCc1cc(F)cc2[nH]c(C(=O)N3CCc4nc(N)sc4C3)cc12 [Example 7, 5-(4-ethyl-6-fluoro-1H-indole-2-carbonyl)-4H,5H,6H,7H-[1,3]thiazolo[5,4-c]pyridin-2-amine] | < 5 | < 1
6 | Nc1nc2c(s1)CN(C(=O)c1cc3ccc(Br)cc3[nH]1)CC2 [Example 92, 5-(6-bromo-1H-indole-2-carbonyl)-4H,5H,6H,7H-[1,3]thiazolo[5,4-c]pyridin-2-amine] | < 5 | < 1
7 | O=C(c1cc2ccc(Cl)cc2[nH]1)N1CCc2nc(N[C@H]3CC[C@@H](O)CC3)sc2C1 [Example 301, (1s,4s)-4-{[5-(6-chloro-1H-indole-2-carbonyl)-4H,5H,6H,7H-[1,3]thiazolo[5,4-c]pyridin-2-yl]amino}cyclohexan-1-ol] | < 5 | < 1
8 | O=C(c1cc2c(F)cc(F)cc2[nH]1)N1CCc2nc(NCC3(CO)CC3)sc2C1 [Example 75, [1-({[5-(4,6-difluoro-1H-indole-2-carbonyl)-4H,5H,6H,7H-[1,3]thiazolo[5,4-c]pyridin-2-yl]amino}methyl)cyclopropyl]methanol] | < 5 | < 1
9 | COC(C)(CO)CNc1nc2c(s1)CN(C(=O)c1cc3ccccc3[nH]1)CC2 (stereo not shown) [Example 283, 3-{[5-(1H-indole-2-carbonyl)-4H,5H,6H,7H-[1,3]thiazolo[5,4-c]pyridin-2-yl]amino}-2-methoxy-2-methylpropan-1-ol] | 5 to 10 | < 1
10 | O=C(c1cc2ccccc2[nH]1)N1CCc2nc(N[C@@H]3CCCC[C@H]3O)sc2C1 [Example 269, (1R,2R)-2-{[5-(1H-indole-2-carbonyl)-4H,5H,6H,7H-[1,3]thiazolo[5,4-c]pyridin-2-yl]amino}cyclohexan-1-ol] | < 5 | < 1
11 | CN(C)C1(CNc2nc3c(s2)CN(C(=O)c2cc4ccccc4[nH]2)CC3)CCC1 [Example 433, N-{[1-(dimethylamino)cyclobutyl]methyl}-5-(1H-indole-2-carbonyl)-4H,5H,6H,7H-[1,3]thiazolo[5,4-c]pyridin-2-amine] | < 5 | < 1
12 | Nc1nc2c(s1)CN(C(=O)c1cc3cccc(Br)c3[nH]1)CC2 [Example 171, 5-(7-bromo-1H-indole-2-carbonyl)-4H,5H,6H,7H-[1,3]thiazolo[5,4-c]pyridin-2-amine] | < 5 | < 1
13 | Cc1cc(F)cc2[nH]c(C(=O)N3CCc4nc(NC5(CO)CCC5)sc4C3)cc12 [Example 298, (1-{[5-(6-fluoro-4-methyl-1H-indole-2-carbonyl)-4H,5H,6H,7H-[1,3]thiazolo[5,4-c]pyridin-2-yl]amino}cyclobutyl)methanol] | < 5 | < 1
14 | CCc1cccc2[nH]c(C(=O)N3CCc4nc(NC(=O)C5(C)CC5)sc4C3)cc12 [Example 333, N-[5-(4-ethyl-1H-indole-2-carbonyl)-4H,5H,6H,7H-[1,3]thiazolo[5,4-c]pyridin-2-yl]-1-methylcyclopropane-1-carboxamide] | < 5 | < 1
15 | O=C(c1cc2c(Cl)cc(F)cc2[nH]1)N1CCc2nc(NC3CCOC3)sc2C1 (stereo not shown) [Example 140, 5-(4-chloro-6-fluoro-1H-indole-2-carbonyl)-N-(oxolan-3-yl)-4H,5H,6H,7H-[1,3]thiazolo[5,4-c]pyridin-2-amine] | < 5 | < 1
16 | O=C(c1cc2c(Cl)cccc2[nH]1)N1CCc2nc(N[C@H]3CC[C@@H](O)CC3)sc2C1 [Example 302, (1s,4s)-4-{[5-(4-chloro-1H-indole-2-carbonyl)-4H,5H,6H,7H-[1,3]thiazolo[5,4-c]pyridin-2-yl]amino}cyclohexan-1-ol] | < 5 | < 1

Row | Structure (SMILES) | IC50 (HBV core protein) [µM] | EC50 (HBV) [µM]
17 | O=C(c1cc2ccccc2[nH]1)N1CCc2nc(NCC3COC3)sc2C1 [Example 126, 5-(1H-indole-2-carbonyl)-N-[(oxetan-3-yl)methyl]-4H,5H,6H,7H-[1,3]thiazolo[5,4-c]pyridin-2-amine] | 5 to 10 | 1 to 10
18 | CCc1ccc(F)c2[nH]c(C(=O)N3CCc4nc(NCC5(CO)CC5)sc4C3)cc12 [Example 236, [1-({[5-(4-ethyl-7-fluoro-1H-indole-2-carbonyl)-4H,5H,6H,7H-[1,3]thiazolo[5,4-c]pyridin-2-yl]amino}methyl)cyclopropyl]methanol] | < 5 | < 1
19 | O=C(c1cc2ccccc2[nH]1)N1CCc2nc(CNCC3CCOC3)sc2C1 (stereo not shown) [Example 1, {[5-(1H-indole-2-carbonyl)-4H,5H,6H,7H-[1,3]thiazolo[5,4-c]pyridin-2-yl]methyl}[(oxolan-3-yl)methyl]amine] | < 100 | 1 to 10
20 | CNC(=O)Nc1nc2c(s1)CN(C(=O)c1cc3ccccc3[nH]1)CC2 [Example 28, 1-[5-(1H-indole-2-carbonyl)-4H,5H,6H,7H-[1,3]thiazolo[5,4-c]pyridin-2-yl]-3-methylurea] | < 5 | < 1
21 | Cc1nc2c(s1)CN(C(=O)c1cc3cc(Cl)ccc3[nH]1)CC2 [Example 161, 5-chloro-2-{2-methyl-4H,5H,6H,7H-[1,3]thiazolo[5,4-c]pyridine-5-carbonyl}-1H-indole] | 5 to 10 | 1 to 10
22 | Nc1nc2c(s1)CN(C(=O)c1cc3ccc(F)cc3[nH]1)CC2 [Example 197, 5-(6-fluoro-1H-indole-2-carbonyl)-4H,5H,6H,7H-[1,3]thiazolo[5,4-c]pyridin-2-amine] | < 5 | < 1
23 | Cc1nc2c(s1)CN(C(=O)c1cc3cccc(OC(F)(F)F)c3[nH]1)CC2 [Example 183, 2-{2-methyl-4H,5H,6H,7H-[1,3]thiazolo[5,4-c]pyridine-5-carbonyl}-7-(trifluoromethoxy)-1H-indole] | < 100 | < 100
24 | CCc1cc(F)cc2[nH]c(C(=O)N3CCc4nc(NC[C@H]5CCOC5)sc4C3)cc12 [Example 329, 5-(4-ethyl-6-fluoro-1H-indole-2-carbonyl)-N-{[(3R)-oxolan-3-yl]methyl}-4H,5H,6H,7H-[1,3]thiazolo[5,4-c]pyridin-2-amine] | < 5 | < 1
25 | CN1CCN(CCNc2nc3c(s2)CN(C(=O)c2cc4ccccc4[nH]2)CC3)CC1 [Example 181, 5-(1H-indole-2-carbonyl)-N-[2-(4-methylpiperazin-1-yl)ethyl]-4H,5H,6H,7H-[1,3]thiazolo[5,4-c]pyridin-2-amine] | < 5 | 1 to 10
26 | CC1c2sc(N)nc2CCN1C(=O)c1cc2ccccc2[nH]1 (stereo not shown) [Example 109, 5-(1H-indole-2-carbonyl)-4-methyl-4H,5H,6H,7H-[1,3]thiazolo[5,4-c]pyridin-2-amine] | < 100 | < 100
27 | Nc1nc2c(s1)CN(C(=O)c1cc3c(F)ccc(F)c3[nH]1)CC2 [Example 170, 5-(4,7-difluoro-1H-indole-2-carbonyl)-4H,5H,6H,7H-[1,3]thiazolo[5,4-c]pyridin-2-amine] | < 5 | < 1
28 | O=C(c1cc2ccccc2[nH]1)N1CCc2nc(NC3CCOCC3)sc2C1 [Example 206, 5-(1H-indole-2-carbonyl)-N-(oxan-4-yl)-4H,5H,6H,7H-[1,3]thiazolo[5,4-c]pyridin-2-amine] | < 5 | < 1
29 | COc1cccc2cc(C(=O)N3CCc4nc(N)sc4C3)[nH]c12 [Example 153, 5-(7-methoxy-1H-indole-2-carbonyl)-4H,5H,6H,7H-[1,3]thiazolo[5,4-c]pyridin-2-amine] | < 100 | < 100
30 | CN1CCOCC1CNc1nc2c(s1)CN(C(=O)c1cc3ccccc3[nH]1)CC2 (stereo not shown) [Example 294, 5-(1H-indole-2-carbonyl)-N-[(4-methylmorpholin-3-yl)methyl]-4H,5H,6H,7H-[1,3]thiazolo[5,4-c]pyridin-2-amine] | < 5 | < 1
31 | O=C(c1cc2ccc(Br)cc2[nH]1)N1CCc2nc(NCC3(O)CCC3)sc2C1 [Example 365, 1-({[5-(6-bromo-1H-indole-2-carbonyl)-4H,5H,6H,7H-[1,3]thiazolo[5,4-c]pyridin-2-yl]amino}methyl)cyclobutan-1-ol] | < 5 | < 1
32 | Cc1cc(Cl)cc2cc(C(=O)N3CCc4nc(N)sc4C3)[nH]c12 [Example 139, 5-(5-chloro-7-methyl-1H-indole-2-carbonyl)-4H,5H,6H,7H-[1,3]thiazolo[5,4-c]pyridin-2-amine] | < 100 | < 100

— patent US11267825B2 (AICURIS GMBH & CO. KG, priority 2017, dated 2022)
